In patent US6479435B1, “Diaryl ethers and processes for their preparation and herbicidal and desiccant compositions containing them” (ISK Americas Incorporated, priority 1997, dated 2002):

Tests used:
Type in all cases: in vivo
[1] = tested on: ivyleaf morningglory (Ipomoea hederacea, IPOHE); test: Post-emerge greenhouse herbicide test, phytotoxicity rating; conditions: Ipomoea, post-emergence, 336 h, 14 days after application, scale 0-100; for pest or weed control at 63 g/ha: rate 63 g ai/ha; for pest or weed control at 500 g/ha: rate 500 g ai/ha
How it was run: (§1)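 Plants at the 2-3 leaf stage, sown 8-21 days earlier, were track-sprayed post-emergence with compound in acetone plus 0.25% v/v non-ionic surfactant at 63-1000 g ai/ha (187 l/ha). Damage was rated at 14 days on a 0-100 scale (0 none, 100 all plants dead), for both crop injury and weed control.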

[2] = tested on: green foxtail (Setaria viridis, SETVI); test: as above; conditions: Setaria viridis, post-emergence, 336 h, 14 days after application, scale 0-100; for pest or weed control at 63 g/ha: rate 63 g ai/ha; for pest or weed control at 500 g/ha: rate 500 g ai/ha
How it was run: as §1

[3] = tested on: lambsquarters (Chenopodium album, CHEAL); test: as above; conditions: Chenopodium album, post-emergence, 336 h, 14 days after application, scale 0-100; for pest or weed control at 63 g/ha: rate 63 g ai/ha; for pest or weed control at 500 g/ha: rate 500 g ai/ha
How it was run: as §1

[4] = tested on: barnyardgrass (Echinochloa crusgalli, ECHCG); test: as above; conditions: Echinochloa crus-galli, post-emergence, 336 h, 14 days after application, scale 0-100; for pest or weed control at 63 g/ha: rate 63 g ai/ha; for pest or weed control at 500 g/ha: rate 500 g ai/ha
How it was run: as §1

[5] = tested on: sicklepod (Cassia obtusifolia, CASOB); test: as above; conditions: Senna obtusifolia, post-emergence, 336 h, 14 days after application, scale 0-100; for pest or weed control at 63 g/ha: rate 63 g ai/ha; for pest or weed control at 500 g/ha: rate 500 g ai/ha
How it was run: as §1

[6] = tested on: large crabgrass (Digitaria sanguinalis, DIGSA); test: as above; conditions: Digitaria sanguinalis, post-emergence, 336 h, 14 days after application, scale 0-100; for pest or weed control at 63 g/ha: rate 63 g ai/ha; for pest or weed control at 500 g/ha: rate 500 g ai/ha
How it was run: as §1

[7] = tested on: Johnsongrass (Sorghum halepense, SORHA); test: as above; conditions: Sorghum halepense, post-emergence, 336 h, 14 days after application, scale 0-100; for pest or weed control at 63 g/ha: rate 63 g ai/ha; for pest or weed control at 500 g/ha: rate 500 g ai/ha
How it was run: as §1

[8] = tested on: velvetleaf (Abutilon theophrasti, ABUTH); test: as above; conditions: Abutilon theophrasti, post-emergence, 336 h, 14 days after application, scale 0-100; for pest or weed control at 63 g/ha: rate 63 g ai/ha; for pest or weed control at 500 g/ha: rate 500 g ai/ha
How it was run: as §1

[9] = tested on: redroot pigweed (Amaranthus retroflexus, AMARE); test: as above; conditions: Amaranthus retroflexus, post-emergence, 336 h, 14 days after application, scale 0-100; for pest or weed control at 63 g/ha: rate 63 g ai/ha; for pest or weed control at 500 g/ha: rate 500 g ai/ha
How it was run: as §1

[10] = tested on: ivyleaf morningglory (Ipomoea hederacea, IPOHE); test: Pre-emerge greenhouse herbicide test, phytotoxicity rating; conditions: Ipomoea, pre-emergence, 336 h, 14 days after application, rating scale 0-100; for pest or weed control at 125 g/ha: Rate 125 g al/ha; for pest or weed control at 500 g/ha: Rate 500 g al/ha
How it was run: (§2)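 Seeds sown in sandy loam one day before track-sprayer application of acetone solutions at 125–1000 g ai/ha (187 l/ha), then surface-watered to incorporate and bottom-watered. Injury scored visually at 14 days on a 0–100 scale (0 no damage, 100 complete death).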

[11] = tested on: lambsquarters (Chenopodium album, CHEAL); test: as above; conditions: Chenopodium album, pre-emergence, 336 h, 14 days after application, rating scale 0-100; for pest or weed control at 125 g/ha: Rate 125 g al/ha; for pest or weed control at 500 g/ha: Rate 500 g al/ha
How it was run: as §2

[12] = tested on: sicklepod (Cassia obtusifolia, CASOB); test: as above; conditions: Senna obtusifolia, pre-emergence, 336 h, 14 days after application, rating scale 0-100; for pest or weed control at 125 g/ha: Rate 125 g al/ha; for pest or weed control at 500 g/ha: Rate 500 g al/ha
How it was run: as §2

[13] = tested on: large crabgrass (Digitaria sanguinalis, DIGSA); test: as above; conditions: Digitaria sanguinalis, pre-emergence, 336 h, 14 days after application, rating scale 0-100; for pest or weed control at 125 g/ha: Rate 125 g al/ha; for pest or weed control at 500 g/ha: Rate 500 g al/ha
How it was run: as §2

[14] = tested on: velvetleaf (Abutilon theophrasti, ABUTH); test: as above; conditions: Abutilon theophrasti, pre-emergence, 336 h, 14 days after application, rating scale 0-100; for pest or weed control at 125 g/ha: Rate 125 g al/ha; for pest or weed control at 500 g/ha: Rate 500 g al/ha
How it was run: as §2

[15] = tested on: redroot pigweed (Amaranthus retroflexus, AMARE); test: as above; conditions: Amaranthus retroflexus, pre-emergence, 336 h, 14 days after application, rating scale 0-100; for pest or weed control at 125 g/ha: Rate 125 g al/ha; for pest or weed control at 500 g/ha: Rate 500 g al/ha
How it was run: as §2

Row | SMILES | pest or weed control at 63 g/ha [1] [%] | pest or weed control at 500 g/ha [1] [%] | pest or weed control at 63 g/ha [2] [%] | pest or weed control at 500 g/ha [2] [%] | pest or weed control at 63 g/ha [3] [%] | pest or weed control at 500 g/ha [3] [%] | pest or weed control at 63 g/ha [4] [%] | pest or weed control at 500 g/ha [4] [%] | pest or weed control at 63 g/ha [5] [%] | pest or weed control at 500 g/ha [5] [%] | pest or weed control at 63 g/ha [6] [%] | pest or weed control at 500 g/ha [6] [%] | pest or weed control at 63 g/ha [7] [%] | pest or weed control at 500 g/ha [7] [%] | pest or weed control at 63 g/ha [8] [%] | pest or weed control at 500 g/ha [8] [%] | pest or weed control at 63 g/ha [9] [%] | pest or weed control at 500 g/ha [9] [%] | pest or weed control at 125 g/ha [10] [%] | pest or weed control at 500 g/ha [10] [%] | other results
1 | Nn1c(C(F)(F)F)cc(=O)n(-c2cc(Oc3ccc(Cl)cn3)c(Cl)cc2F)c1=O [Compound 9-3, 1-Amino-3-[4-chloro-2-fluoro-5-(5-chloro-2-pyridyloxy)phenyl]-6-trifluoromethyl-1,2,3,4-tetrahydropyrimidine-2,4-dione] | 100 | 100 | 20 | 95 | 95 | 100 | 0 | 90 | 20 | 95 | 30 | 95 | 10 | 90 | 100 | 100 | 100 | 100 | 40 | 100 | pest or weed control at 125 g/ha [11]: 100%; pest or weed control at 500 g/ha [11]: 100%; pest or weed control at 125 g/ha [12]: 0%; pest or weed control at 500 g/ha [12]: 70%; pest or weed control at 125 g/ha [13]: 95%; pest or weed control at 500 g/ha [13]: 100%; pest or weed control at 125 g/ha [14]: 100%; pest or weed control at 500 g/ha [14]: 100%; pest or weed control at 125 g/ha [15]: 100%; pest or weed control at 500 g/ha [15]: 100%
2 | Nn1c(C(F)(F)F)cc(=O)n(-c2cc(Oc3cccc(Cl)n3)c(Cl)cc2F)c1=O [Compound 9-5, 1-Amino-3-[4-chloro-2-fluoro-5-(6-chloro-2-pyridyloxy)phenyl]-6-trifluoromethyl-1,2,3,4-tetrahydropyrimidine-2,4-dione] | 100 | 90 | 30 | 90 | 90 | 100 | 20 | 100 | 100 | 100 | 0 | 80 | 50 | 100 | 90 | 100 | 100 | 100 | 70 | 50 | pest or weed control at 125 g/ha [11]: 100%; pest or weed control at 500 g/ha [11]: 100%; pest or weed control at 125 g/ha [12]: 10%; pest or weed control at 500 g/ha [12]: 50%; pest or weed control at 125 g/ha [13]: 95%; pest or weed control at 500 g/ha [13]: 100%; pest or weed control at 125 g/ha [14]: 100%; pest or weed control at 500 g/ha [14]: 100%; pest or weed control at 125 g/ha [15]: 100%; pest or weed control at 500 g/ha [15]: 100%
3 | Nn1c(C(F)(F)F)cc(=O)n(-c2cc(Oc3nc(F)c(F)cc3F)c(Cl)cc2F)c1=O [Compound 9-6, 1-Amino-3-[4-chloro-2-fluoro-5-(3,5,6-trifluoro-2-pyridyloxy)phenyl]-6-trifluoromethyl-1,2,3,4-tetrahydropyrimidine-2,4-dione] | 100 | 100 | 20 | 100 | 100 | 100 | 90 | 100 | 40 | 100 | 90 | 100 | 100 | 100 | 100 | 100 | 100 | 100 | 90 | 95 | pest or weed control at 125 g/ha [11]: 100%; pest or weed control at 500 g/ha [11]: 100%; pest or weed control at 125 g/ha [12]: 90%; pest or weed control at 500 g/ha [12]: 100%; pest or weed control at 125 g/ha [13]: 100%; pest or weed control at 500 g/ha [13]: 100%; pest or weed control at 125 g/ha [14]: 100%; pest or weed control at 500 g/ha [14]: 100%; pest or weed control at 125 g/ha [15]: 100%; pest or weed control at 500 g/ha [15]: 100%
4 | Nn1c(C(F)(F)F)cc(=O)n(-c2cc(Oc3ncccc3C(F)(F)F)c(Cl)cc2F)c1=O [Compound 9-7, 1-Amino-3-[4-chloro-2-fluoro-5-(3-trifluoromethyl-2-pyridyloxy)phenyl]-6-trifluoromethyl-1,2,3,4-tetrahydropyrimidine-2,4-dione] | 100 | 100 | 40 | 70 | 100 | 100 | 60 | 70 | 90 | 90 | 10 | 30 | 80 | 90 | 100 | 100 | 100 | 100 | 70 | 100 | pest or weed control at 125 g/ha [11]: 100%; pest or weed control at 500 g/ha [11]: 100%; pest or weed control at 125 g/ha [12]: 40%; pest or weed control at 500 g/ha [12]: 100%; pest or weed control at 125 g/ha [13]: 100%; pest or weed control at 500 g/ha [13]: 100%; pest or weed control at 125 g/ha [14]: 100%; pest or weed control at 500 g/ha [14]: 100%; pest or weed control at 125 g/ha [15]: 100%; pest or weed control at 500 g/ha [15]: 100%
